From patent US6656509B1, “Combination of selenium-containing compounds with cytostatics” (Biosyn Arzneimittel GmbH, priority 1998, dated 2003)

Experiments:
human tumor xenografts = test: clonogenic assay, all 12 xenografts (means, active/total); format: cell-based
Experimental: The cell mixture was passed through sieves of 200 μm and 50 μm mesh size and washed thereafter twice with PBS. The percentage of viable cells was determined in a Neubauer counting chamber using trypan blue exclusion.
8×10^3 to 1,6×10^4 cells were added to 0.2 ml of the same culture medium together with 0.4% agar and placed in already coated 24-multiwell dishes. Test substances were applied by continuous exposure (drug overlay) in 0.2 ml medium. Every dish included six control wells containing the vehicle- and drug-treated groups in triplicate at six concentrations.
Cultures were incubated at 37° and 7% CO2 in a humidified atmosphere for 5 to 15 days (depending on the doubling time of the tumor stem cells) and monitored for colony growth using an inverted microscope. Within this period, in vitro tumor growth led to the formation of colonies with a diameter of ≧50 μm. At the time of maximum colony formation counts were performed with an automatic image analysis system (OMNICOM Fas IV, Biosys GmbH). […] Drug effects were expressed in terms of the percentage of surviving cells, obtained by comparison of the mean number of colonies in the treated plates with the mean colony count of the untreated controls (test-versus-control-group value, T/C=colony countTreated Group*100/colony countControl Group).
Coefficient of variation in the control group ≦50%. IC50 and IC70 values were determined by plotting compound concentration versus cell survival rate. Mean IC50 and IC70 values were calculated according to the formula: [formula]
with x=specific tumor xenograft and n=total number of tumor xenografts studied. If an IC50 or IC70 value could not be determined within the examined dose range, the lowest or highest concentration studied was used for the calculation.

[1] = cited from earlier work
[2] = corresponding selenium concentration
[3] = mean over the xenografts studied

With `O=[Se]([O-])[O-].[Na+].[Na+]` [sodium selenite] the “T/C values in all xenografts” value (human tumor xenografts; 100 μM) was “below 20%”, the “active(++, +++)/total” value (human tumor xenografts; 1. μM) was 0/12 and the “active(++, +++)/total xenografts only, percent” value (human tumor xenografts; 1. μM) was 0%. The “active(++, +++)/total” value (human tumor xenografts; 10. μM) was 2/12, the “active(++, +++)/total xenografts only, percent” value (human tumor xenografts; 10. μM) was 17% and the “active(++, +++)/total” value (human tumor xenografts; 100. μM) was 12/12. For the same molecule, the “active(++, +++)/total xenografts only, percent” value (human tumor xenografts; 100. μM) was 100%, the “active(++, +++)/total” value (human tumor xenografts; .001 μM) was 0/12 and the “active(++, +++)/total xenografts only, percent” value (human tumor xenografts; .001 μM) was 0%. For the same molecule, the “active(++, +++)/total” value (human tumor xenografts; .01 μM) was 0/12, the “active(++, +++)/total xenografts only, percent” value (human tumor xenografts; .01 μM) was 0% and the “active(++, +++)/total” value (human tumor xenografts; .1 μM) was 0/12. For the same molecule, the “active(++, +++)/total xenografts only, percent” value (human tumor xenografts; .1 μM) was 0%, the cytotoxic effect (human tumor xenografts; amounts up to 1 μM) was “no distinct cytotoxic effect” and the “mean IC50 as selenium concentration” value (human tumor xenografts; [2]) was 1,2 μg/ml. The “mean IC70 as selenium concentration” value (human tumor xenografts; [2]) was 2.1 µg/mL, the IC50 (human tumor xenografts; [3]) was 15.5 µM and the “mean IC70” value (human tumor xenografts; [3]) was 27 µM. The “dosage considered harmless in sensitive persons” value ([1]; humans, sensitive persons) was “up to 500 μg per day”, the “safe maximum daily intake of selenium” value ([1]; humans, inferred from chronic toxicity observations) was 820 µg and the “daily supply after which clinical signs of selenosis were observed” value ([1]; study carried out in China) was 3200 to 6700 µg.
